Target: T1, FH (富马酸脱氢酶) (Homo sapiens, UniProt P07954)
T1 construct: endogenous protein in desalted HeLa cell lysate, native, no tag
T1 sequence (P07954 45-510): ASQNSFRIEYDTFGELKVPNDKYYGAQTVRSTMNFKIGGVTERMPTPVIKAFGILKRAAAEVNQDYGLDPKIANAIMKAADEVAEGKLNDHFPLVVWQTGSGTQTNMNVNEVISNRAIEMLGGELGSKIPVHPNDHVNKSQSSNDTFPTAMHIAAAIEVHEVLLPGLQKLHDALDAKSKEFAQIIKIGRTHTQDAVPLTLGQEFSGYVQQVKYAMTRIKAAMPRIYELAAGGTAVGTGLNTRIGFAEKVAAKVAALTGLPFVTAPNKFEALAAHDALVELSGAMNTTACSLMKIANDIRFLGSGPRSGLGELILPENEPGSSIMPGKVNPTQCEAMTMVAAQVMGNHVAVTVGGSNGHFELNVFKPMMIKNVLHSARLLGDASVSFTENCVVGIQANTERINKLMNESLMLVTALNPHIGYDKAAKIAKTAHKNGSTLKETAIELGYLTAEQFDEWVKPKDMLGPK
Assay: matrix thermal shift assay (mTSA), DIA proteomics, dose-response fit
Assay type: biochemical
Conditions: desalted HeLa lysate in PBS, endogenous metabolites removed, 50 min room temperature, then 52 ℃ 3 min; 0.004-2 mmol/L ligand; thermal stabilisation; only four ligand concentrations; read-out: 亲和力 (EC50)

O=C(O)/C=C/C(=O)O [富马酸]
EC50: 548 µM

— article PMC11224940, “矩阵热转移技术鉴定有机酸类代谢物的结合蛋白质” (Chinese Journal of Chromatography, 2024)
